Measurements from paper PMC9135895, “The effects of two gold-N-heterocyclic carbene (NHC) complexes in ovarian cancer cells: a redox proteomic study” (Cancer Chemotherapy and Pharmacology, 2022).

Legend:
[1] = target: T1, Glyceraldehyde-3-phosphate dehydrogenase (GAPDH) (Homo sapiens, UniProt P04406); experiment: GAPDH activity ([…] nm) in A2780 crude cell extract after […] min pre-incubation; no adduct seen by ESI-MS with rabbit GAPDH; type: biochemical
T1 construct: endogenous GAPDH in A2780 cell extract

[2] = target: T1, Glyceraldehyde-3-phosphate dehydrogenase (GAPDH); experiment: GAPDH activity ([…] nm) in A2780 crude cell extract after […] min pre-incubation; type: biochemical

T1 sequence (P04406 2-335): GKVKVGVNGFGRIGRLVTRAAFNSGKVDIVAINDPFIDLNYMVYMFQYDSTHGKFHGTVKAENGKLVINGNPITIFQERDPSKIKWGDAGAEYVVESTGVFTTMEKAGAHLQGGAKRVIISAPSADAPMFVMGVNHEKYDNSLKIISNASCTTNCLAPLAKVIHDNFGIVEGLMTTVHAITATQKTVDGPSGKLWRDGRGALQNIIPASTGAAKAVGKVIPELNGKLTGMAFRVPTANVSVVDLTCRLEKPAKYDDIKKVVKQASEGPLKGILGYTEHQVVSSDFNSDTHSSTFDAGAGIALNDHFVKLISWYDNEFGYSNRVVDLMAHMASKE

Compound | EC50 [1] | EC50 [2]
CCCCn1cc[n+](C)[c]1[AuH][c]1n(CCCC)cc[n+]1C [compound 2, bis(1-butyl-3-methyl-imidazole-2-ylidene) gold(I)] | 7.13 ± 0.1 µM | –
CCCCn1cc[n+](C)[c]1[Au-][Cl] [compound 1, chlorido (1-butyl-3-methyl-imidazole-2-ylidene) gold(I)] | – | 2.86 ± 0.3 µM
